Measurements published in patent publication US20230123334A1, “AMINO LIPID COMPOUND, PREPARATION METHOD THEREFOR, AND APPLICATION THEREOF” (SHENZHEN SHENXIN BIOTECHNOLOGY CO., LTD., priority 2020, published 2023).

Each compound was assayed on HEK293 cells (assay: Preliminary screening as mRNA vectors, EGFP mRNA transfection of HEK293 cells). Conditions: EGFP mRNA 50 ng per well, 96-well plates; percentage of GFP fluorescent cells relative to total number of cells (Hoechst).
Assay type: cell-based
Method in brief: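 HEK293 cells in DMEM plus 10% FBS transfected in 96-well format with 50 ng EGFP mRNA per well; Lipofectamine2000 served as positive control. Read-out is the percentage of GFP-fluorescent cells among total cells, counted by Hoechst nuclear stain.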

Row | Structure (SMILES) | Absolute mRNA transfection efficiency in HEK293 cells
1 | CCCCCCCCCCCCCCCCCCSc1nc(NCCCCCC)nc(NCCCN2CCN(C)CC2)n1 [Compound D9S18N6] | 55.4%
2 | CCCCCCCCCCCCCCCCCCSc1nc(NCCCCCCC)nc(NCCCN2CCN(C)CC2)n1 [Compound D9S18N7] | 86.6%
3 | CCCCCCCCCCCCCCCCCCSc1nc(NCCCCCCCC)nc(NCCCN2CCN(C)CC2)n1 [Compound D9S18N8] | 25.8%
4 | CCCCCCCCCCCCCCCCCCSc1nc(NCCCCCCCCC)nc(NCCCN2CCN(C)CC2)n1 [Compound D9S18N9] | 7.6%
5 | CCCCCCCCCCCCCCCCCCSc1nc(NCCCCCCCCCCC)nc(NCCCN2CCN(C)CC2)n1 [Compound D9S18N11] | 4.3%
6 | CCCCCCCCCCCCCCCCCCSc1nc(NCCCCCCCCCCCC)nc(NCCCN2CCN(C)CC2)n1 [Compound D9S18N12] | 1.7%
7 | CCCCCCCCCCCCCCCCCCSc1nc(NCCCCCCCCCCCCC)nc(NCCCN2CCN(C)CC2)n1 [Compound D9S18N13] | 0.0%
8 | CCCCCCCCCCCCCCCCCCSc1nc(NCCCCCCCCCCCCCCC)nc(NCCCN2CCN(C)CC2)n1 [Compound D9S18N15] | 0.0%
9 | CCCCCCCCCCCCCCCCCCSc1nc(NCCCCCCCCCCCCCCCC)nc(NCCCN2CCN(C)CC2)n1 [Compound D9S18N16] | 0.1%
10 | CCCCCCCCCCCCCCCCCCNc1nc(NCCCN2CCN(C)CC2)nc(SCCCCCCCCCCCCCCCCCC)n1 [Compound D9S18N18] | 0.1%
11 | CCCCCCNc1nc(NCC2CCN(C)CC2)nc(SCCCCCC)n1 [Compound D10S6N6] | 0.3%
12 | CCCCCCCNc1nc(NCC2CCN(C)CC2)nc(SCCCCCC)n1 [Compound D10S6N7] | 5.5%
13 | CCCCCCCCNc1nc(NCC2CCN(C)CC2)nc(SCCCCCC)n1 [Compound D10S6N8] | 1.4%
14 | CCCCCCCCCNc1nc(NCC2CCN(C)CC2)nc(SCCCCCC)n1 [Compound D10S6N9] | 1.2%
15 | CCCCCCCCCCCNc1nc(NCC2CCN(C)CC2)nc(SCCCCCC)n1 [Compound D10S6N11] | 4.0%
16 | CCCCCCCCCCCCNc1nc(NCC2CCN(C)CC2)nc(SCCCCCC)n1 [Compound D10S6N12] | 9.6%
17 | CCCCCCCCCCCCCNc1nc(NCC2CCN(C)CC2)nc(SCCCCCC)n1 [Compound D10S6N13] | 22.7%
18 | CCCCCCCCCCCCCCCNc1nc(NCC2CCN(C)CC2)nc(SCCCCCC)n1 [Compound D10S6N15] | 7.9%
19 | CCCCCCCCCCCCCCCCNc1nc(NCC2CCN(C)CC2)nc(SCCCCCC)n1 [Compound D10S6N16] | 41.5%
20 | CCCCCCCCCCCCCCCCCCNc1nc(NCC2CCN(C)CC2)nc(SCCCCCC)n1 [Compound D10S6N18] | 41.4%
21 | CCCCCCSc1nc(NCC2CCN(C)CC2)nc(SCCCCCC)n1 [Compound D10S6S6] | 14.4%
22 | CCCCCCCSc1nc(NCC2CCN(C)CC2)nc(SCCCCCC)n1 [Compound D10S6S7] | 19.7%
23 | CCCCCCCCSc1nc(NCC2CCN(C)CC2)nc(SCCCCCC)n1 [Compound D10S6S8] | 6.6%

Row | Structure (SMILES) | Absolute mRNA transfection efficiency in HEK293 cells
24 | CCCCCCCCCSc1nc(NCC2CCN(C)CC2)nc(SCCCCCC)n1 [Compound D10S6S9] | 14.7%
25 | CCCCCCCCCCSc1nc(NCC2CCN(C)CC2)nc(SCCCCCC)n1 [Compound D10S6S10] | 22.4%
26 | CCCCCCCCCCCSc1nc(NCC2CCN(C)CC2)nc(SCCCCCC)n1 [Compound D10S6S11] | 15.9%
27 | CCCCCCCCCCCCSc1nc(NCC2CCN(C)CC2)nc(SCCCCCC)n1 [Compound D10S6S12] | 41.2%
28 | CCCCCCCCCCCCCCSc1nc(NCC2CCN(C)CC2)nc(SCCCCCC)n1 [Compound D10S6S14] | 54.4%
29 | CCCCCCCCCCCCCCCSc1nc(NCC2CCN(C)CC2)nc(SCCCCCC)n1 [Compound D10S6S15] | 40.0%
30 | CCCCCCCCCCCCCCCCSc1nc(NCC2CCN(C)CC2)nc(SCCCCCC)n1 [Compound D10S6S16] | 85.5%
31 | CCCCCCCCCCCCCCCCCCSc1nc(NCC2CCN(C)CC2)nc(SCCCCCC)n1 [Compound D10S6S18] | 72.8%
32 | CCCCCCCSc1nc(NCCCCCC)nc(NCC2CCN(C)CC2)n1 [Compound D10S7N6] | 2.0%
33 | CCCCCCCNc1nc(NCC2CCN(C)CC2)nc(SCCCCCCC)n1 [Compound D10S7N7] | 0.9%
34 | CCCCCCCCNc1nc(NCC2CCN(C)CC2)nc(SCCCCCCC)n1 [Compound D10S7N8] | 1.3%
35 | CCCCCCCCCNc1nc(NCC2CCN(C)CC2)nc(SCCCCCCC)n1 [Compound D10S7N9] | 4.6%
36 | CCCCCCCCCCCNc1nc(NCC2CCN(C)CC2)nc(SCCCCCCC)n1 [Compound D10S7N11] | 25.3%
37 | CCCCCCCCCCCCNc1nc(NCC2CCN(C)CC2)nc(SCCCCCCC)n1 [Compound D10S7N12] | 63.7%
38 | CCCCCCCCCCCCCNc1nc(NCC2CCN(C)CC2)nc(SCCCCCCC)n1 [Compound D10S7N13] | 70.8%
39 | CCCCCCCCCCCCCCCNc1nc(NCC2CCN(C)CC2)nc(SCCCCCCC)n1 [Compound D10S7N15] | 67.3%
40 | CCCCCCCCCCCCCCCCNc1nc(NCC2CCN(C)CC2)nc(SCCCCCCC)n1 [Compound D10S7N16] | 44.3%
41 | CCCCCCCCCCCCCCCCCCNc1nc(NCC2CCN(C)CC2)nc(SCCCCCCC)n1 [Compound D10S7N18] | 45.8%
42 | CCCCCCCSc1nc(NCC2CCN(C)CC2)nc(SCCCCCCC)n1 [Compound D10S7S7] | 19.3%
43 | CCCCCCCCSc1nc(NCC2CCN(C)CC2)nc(SCCCCCCC)n1 [Compound D10S7S8] | 32.9%
44 | CCCCCCCCCSc1nc(NCC2CCN(C)CC2)nc(SCCCCCCC)n1 [Compound D10S7S9] | 33.5%
45 | CCCCCCCCCCSc1nc(NCC2CCN(C)CC2)nc(SCCCCCCC)n1 [Compound D10S7S10] | 55.8%
46 | CCCCCCCCCCCSc1nc(NCC2CCN(C)CC2)nc(SCCCCCCC)n1 [Compound D10S7S11] | 60.8%

Row | Structure (SMILES) | Absolute mRNA transfection efficiency in HEK293 cells
47 | CCCCCCCCCCCCSc1nc(NCC2CCN(C)CC2)nc(SCCCCCCC)n1 [Compound D10S7S12] | 80.4%
48 | CCCCCCCCCCCCCCSc1nc(NCC2CCN(C)CC2)nc(SCCCCCCC)n1 [Compound D10S7S14] | 88.7%
49 | CCCCCCCCCCCCCCCSc1nc(NCC2CCN(C)CC2)nc(SCCCCCCC)n1 [Compound D10S7S15] | 90.4%
50 | CCCCCCCCCCCCCCCCSc1nc(NCC2CCN(C)CC2)nc(SCCCCCCC)n1 [Compound D10S7S16] | 73.7%
51 | CCCCCCCCCCCCCCCCCCSc1nc(NCC2CCN(C)CC2)nc(SCCCCCCC)n1 [Compound D10S7S18] | 90.5%
52 | CCCCCCCCSc1nc(NCCCCCC)nc(NCC2CCN(C)CC2)n1 [Compound D10S8N6] | 0.4%
53 | CCCCCCCCSc1nc(NCCCCCCC)nc(NCC2CCN(C)CC2)n1 [Compound D10S8N7] | 0.3%
54 | CCCCCCCCNc1nc(NCC2CCN(C)CC2)nc(SCCCCCCCC)n1 [Compound D10S8N8] | 1.2%
55 | CCCCCCCCCNc1nc(NCC2CCN(C)CC2)nc(SCCCCCCCC)n1 [Compound D10S8N9] | 30.2%
56 | CCCCCCCCCCCNc1nc(NCC2CCN(C)CC2)nc(SCCCCCCCC)n1 [Compound D10S8N11] | 81.5%
57 | CCCCCCCCCCCCNc1nc(NCC2CCN(C)CC2)nc(SCCCCCCCC)n1 [Compound D10S8N12] | 73.1%
58 | CCCCCCCCCCCCCNc1nc(NCC2CCN(C)CC2)nc(SCCCCCCCC)n1 [Compound D10S8N13] | 75.0%
59 | CCCCCCCCCCCCCCCNc1nc(NCC2CCN(C)CC2)nc(SCCCCCCCC)n1 [Compound D10S8N15] | 53.3%
60 | CCCCCCCCCCCCCCCCNc1nc(NCC2CCN(C)CC2)nc(SCCCCCCCC)n1 [Compound D10S8N16] | 36.4%
61 | CCCCCCCCCCCCCCCCCCNc1nc(NCC2CCN(C)CC2)nc(SCCCCCCCC)n1 [Compound D10S8N18] | 20.1%
62 | CCCCCCCCSc1nc(NCC2CCN(C)CC2)nc(SCCCCCCCC)n1 [Compound D10S8S8] | 50.8%
63 | CCCCCCCCCSc1nc(NCC2CCN(C)CC2)nc(SCCCCCCCC)n1 [Compound D10S8S9] | 37.6%
64 | CCCCCCCCCCSc1nc(NCC2CCN(C)CC2)nc(SCCCCCCCC)n1 [Compound D10S8S10] | 74.2%
65 | CCCCCCCCCCCSc1nc(NCC2CCN(C)CC2)nc(SCCCCCCCC)n1 [Compound D10S8S11] | 67.0%
66 | CCCCCCCCCCCCSc1nc(NCC2CCN(C)CC2)nc(SCCCCCCCC)n1 [Compound D10S8S12] | 67.9%
67 | CCCCCCCCCSc1nc(NCCCCCC)nc(NCC2CCN(C)CC2)n1 [Compound D10S9N6] | 0.6%
